According to patent publication US4684664A, “Derivatives of β-(4-isocyano-1,2,3,4-diepoxycyclopentyl) acrylic acid” (Kureha Kagaku Kogyo Kabushiki Kaisha, priority 1984, dated 1987):
Values after ≈ are worked out from the molar mass of the structure shown.

What was measured:
Format in all cases: cell-based
[1] = system: Micrococcus luteus ATCC 9341; assay: Antibacterial activity, agar-dilution MIC, organism No. 25; conditions: Micrococcus luteus, ATCC9341; Organism No. 25, bouillon-agar; read-out: Minimum Inhibitory Concentration
In short: (§1)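 Minimum inhibitory concentration determined on solid bouillon agar by the agar-dilution technique, with values stated as μg/ml.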

[2] = system: Streptococcus pyogenes IFO 3340; assay: Antibacterial activity, agar-dilution MIC, organism No. 26; conditions: Streptococcus pyogenes, IFO3340; Organism No. 26, bouillon-agar; read-out: Minimum Inhibitory Concentration
In short: as §1

[3] = system: Staphylococcus aureus Terajima; assay: Antibacterial activity, agar-dilution MIC, organism No. 2; conditions: Staphylococcus aureus; Organism No. 2, bouillon-agar; read-out: Minimum Inhibitory Concentration
In short: as §1

[4] = system: Pseudomonas aeruginosa IFO 3445; assay: Antibacterial activity, agar-dilution MIC, organism No. 15; conditions: Pseudomonas aeruginosa, IFO3445; Organism No. 15, bouillon-agar; read-out: Minimum Inhibitory Concentration
In short: as §1

[5] = system: Salmonella paratyphi-A 1015; assay: Antibacterial activity, agar-dilution MIC, organism No. 10; conditions: Salmonella enterica, PARATYPHI, read-out: Minimum Inhibitory Concentration
In short: as §1

Enterobacter cloacae 963 = assay: Antibacterial activity, agar-dilution MIC, organism No. 24; conditions: Enterobacter cloacae, 963; Organism No. 24, bouillon-agar; read-out: Minimum Inhibitory Concentration
In short: as §1

[6] = system: Salmonella enteritidis G 14; assay: Antibacterial activity, agar-dilution MIC, organism No. 12; conditions: Salmonella enterica, ENTERITIDIS; Organism No. 12, bouillon-agar; read-out: Minimum Inhibitory Concentration
In short: as §1

[7] = system: Pseudomonas aeruginosa PAO 1; assay: Antibacterial activity, agar-dilution MIC, organism No. 17; conditions: Pseudomonas aeruginosa, PAO1; Organism No. 17, bouillon-agar; read-out: Minimum Inhibitory Concentration
In short: as §1

[8] = system: Proteus morganii IFO 3848; assay: Antibacterial activity, agar-dilution MIC, organism No. 18; conditions: Morganella morganii, IFO3848; Organism No. 18, bouillon-agar; read-out: Minimum Inhibitory Concentration
In short: as §1

[9] = system: Klebsiella pneumoniae PCI-602; assay: Antibacterial activity, agar-dilution MIC, organism No. 7; conditions: Klebsiella pneumoniae, PCI602; Organism No. 7, bouillon-agar; read-out: Minimum Inhibitory Concentration
In short: as §1

[10] = system: Proteus rettgeri IFO 3850; assay: Antibacterial activity, agar-dilution MIC, organism No. 22; conditions: Providencia rettgeri, IFO3850; Organism No. 22, bouillon-agar; read-out: Minimum Inhibitory Concentration
In short: as §1

Proteus vulgaris HX-19 = assay: Antibacterial activity, agar-dilution MIC, organism No. 21; conditions: Proteus vulgaris, HX19; Organism No. 21, bouillon-agar; read-out: Minimum Inhibitory Concentration
In short: as §1

[11] = system: Pseudomonas aeruginosa NCTC 10490; assay: Antibacterial activity, agar-dilution MIC, organism No. 16; conditions: Pseudomonas aeruginosa, NCTC10490; Organism No. 16, bouillon-agar; read-out: Minimum Inhibitory Concentration
In short: as §1

[12] = system: Escherichia coli NIHJ-JC-2; assay: Antibacterial activity, agar-dilution MIC, organism No. 5; conditions: Escherichia coli, NIHJJC2; Organism No. 5, bouillon-agar; read-out: Minimum Inhibitory Concentration
In short: as §1

[13] = system: Aspergillus niger IFO 6342; assay: Antifungal activity, agar-dilution MIC, organism No. 30; conditions: Aspergillus niger, IFO6342; Organism No. 30, bouillon-agar; read-out: Minimum Inhibitory Concentration
In short: as §1

[14] = system: Proteus mirabilis IFO 3849; assay: Antibacterial activity, agar-dilution MIC, organism No. 19; conditions: Proteus mirabilis, IFO3849; Organism No. 19, bouillon-agar; read-out: Minimum Inhibitory Concentration
In short: as §1

[15] = system: Mycoplasma pneumoniae IID817; assay: Antimycoplasmal activity, MIC by phenol red colour change, organism No. 28; conditions: Mycoplasma, IID817; Organism No. 28, PPLO broth + 1% glucose, 37° C.; read-out: Minimum Inhibitory Concentration (MIC)
Protocol: Mycoplasma pneumoniae IID817 was used as the test microorganism in a culture medium prepared by adding 1% of glucose to "PPLO broth (manufactured by Difco Co.) liquid culture medium" at 37° C. with phenol red as an indicator, thereby culturing the test microorganism.

[16] = system: Enterobacter aerogenes ATCC 13048; assay: Antibacterial activity, agar-dilution MIC, organism No. 23; conditions: Klebsiella aerogenes, ATCC13048; Organism No. 23, bouillon-agar; read-out: Minimum Inhibitory Concentration
In short: as §1

[17] = system: Streptococcus pyogenes Cook; assay: Antibacterial activity, agar-dilution MIC, organism No. 4; conditions: Streptococcus pyogenes; Organism No. 4, bouillon-agar; read-out: Minimum Inhibitory Concentration
In short: as §1

[18] = system: Streptococcus faecium IFO 3826; assay: Antibacterial activity, agar-dilution MIC, organism No. 27; conditions: Enterococcus faecium, IFO3826; Organism No. 27, bouillon-agar; read-out: Minimum Inhibitory Concentration
In short: as §1

Salmonella typhi 901 = assay: Antibacterial activity, agar-dilution MIC, organism No. 9; conditions: Salmonella enterica, TYPHI, read-out: Minimum Inhibitory Concentration
In short: as §1

[19] = system: Staphylococcus aureus FDA 209PJc-1; assay: Antibacterial activity, agar-dilution MIC, organism No. 1; conditions: Staphylococcus aureus, FDA209PJC1; Organism No. 1, bouillon-agar; read-out: Minimum Inhibitory Concentration
In short: as §1

[20] = system: Staphylococcus aureus MS 353; assay: Antibacterial activity, agar-dilution MIC, organism No. 3; conditions: Staphylococcus aureus, MS353; Organism No. 3, bouillon-agar; read-out: Minimum Inhibitory Concentration
In short: as §1

[21] = system: Escherichia coli K12 C600 IAM 1264; assay: Antibacterial activity, agar-dilution MIC, organism No. 6; conditions: Escherichia coli, IAM1264; Organism No. 6, bouillon-agar; read-out: Minimum Inhibitory Concentration
In short: as §1

[22] = system: Bacillus subtilis ATCC 6633; assay: Antibacterial activity, agar-dilution MIC, organism No. 14; conditions: Bacillus subtilis, ATCC6633; Organism No. 14, bouillon-agar; read-out: Minimum Inhibitory Concentration
In short: as §1

[23] = system: Salmonella shottmuelleri 8006; assay: Antibacterial activity, agar-dilution MIC, organism No. 11; conditions: Salmonella, 8006; Organism No. 11, bouillon-agar; read-out: Minimum Inhibitory Concentration
In short: as §1

[24] = system: Candida albicans IAM 4905; assay: Antifungal activity, agar-dilution MIC, organism No. 29; conditions: Candida albicans, IAM4905; Organism No. 29, bouillon-agar; read-out: Minimum Inhibitory Concentration
In short: as §1

[25] = system: Salmonella typhimurium IID 971; assay: Antibacterial activity, agar-dilution MIC, organism No. 8; conditions: Salmonella enterica; Organism No. 8, bouillon-agar; read-out: Minimum Inhibitory Concentration
In short: as §1

[26] = system: Serratia marcescens IAM 1184; assay: Antibacterial activity, agar-dilution MIC, organism No. 13; conditions: Serratia marcescens, IAM1184; Organism No. 13, bouillon-agar; read-out: Minimum Inhibitory Concentration
In short: as §1

Proteus vulgaris OX-19 = assay: Antibacterial activity, agar-dilution MIC, organism No. 20; conditions: Proteus vulgaris, OX19; Organism No. 20, bouillon-agar; read-out: Minimum Inhibitory Concentration
In short: as §1

SMILES	MIC [1] [µg/mL]	MIC [2] [µg/mL]	MIC [3] [µg/mL]	MIC [4] [µg/mL]	MIC [5] [µg/mL]	MIC (Enterobacter cloacae 963) [µg/mL]	MIC [6] [µg/mL]	MIC [7] [µg/mL]	MIC [8] [µg/mL]	MIC [9] [µg/mL]	MIC [10] [µg/mL]	MIC (Proteus vulgaris HX-19) [µg/mL]	MIC [11] [µg/mL]	MIC [12] [µg/mL]	MIC [13] [µg/mL]	MIC [14] [µg/mL]	MIC [15] [µg/mL]	MIC [16] [µg/mL]	MIC [17] [µg/mL]	MIC [18] [µg/mL]	also measured
[C-]#[N+]C12CC3(/C=C/C(=O)OCc4cccc(OC)c4)OC3C1O2 (stereo not drawn) [compound 12]	< 0.1	3.13 (≈ 9.99 µM)	3.13 (≈ 9.99 µM)	> 100	3.13 (≈ 9.99 µM)	> 100	3.13 (≈ 9.99 µM)	> 100	1.56 (≈ 4.98 µM)	0.39 (≈ 1.24 µM)	> 100	< 0.1	> 100	6.25 (≈ 19.9 µM)	3.13 (≈ 9.99 µM)	3.13 (≈ 9.99 µM)	0.4	> 100	3.13 (≈ 9.99 µM)	3.13 (≈ 9.99 µM)	MIC (Salmonella typhi 901): 3.13 µg/mL (≈ 9.99 µM); MIC [19]: 1.56 µg/mL (≈ 4.98 µM); MIC [20]: 0.78 µg/mL (≈ 2.49 µM); MIC [21]: 6.25 µg/mL (≈ 19.9 µM); MIC [22]: 1.56 µg/mL (≈ 4.98 µM); MIC [23]: 3.13 µg/mL (≈ 9.99 µM); MIC [24]: 1.56 µg/mL (≈ 4.98 µM); MIC [25]: 6.25 µg/mL (≈ 19.9 µM); MIC [26]: 12.5 µg/mL (≈ 39.9 µM); MIC (Proteus vulgaris OX-19): 0.78 µg/mL (≈ 2.49 µM)
[C-]#[N+]C12CC3(/C=C/C(=O)OCc4ccccc4[N+](=O)[O-])OC3C1O2 (stereo not drawn) [compound 13]	< 0.1	100 (≈ 305 µM)	0.39 (≈ 1.19 µM)	> 200	25 (≈ 76.2 µM)	> 200	200 (≈ 609 µM)	> 200	12.5 (≈ 38.1 µM)	25 (≈ 76.2 µM)	100 (≈ 305 µM)	0.1 (≈ 0.305 µM)	> 200	100 (≈ 305 µM)	6.25 (≈ 19 µM)	> 200	0.2	> 200	100 (≈ 305 µM)	0.78 (≈ 2.38 µM)	MIC (Salmonella typhi 901): 50 µg/mL (≈ 152 µM); MIC [19]: 0.39 µg/mL (≈ 1.19 µM); MIC [20]: 0.39 µg/mL (≈ 1.19 µM); MIC [21]: 100 µg/mL (≈ 305 µM); MIC [22]: 25 µg/mL (≈ 76.2 µM); MIC [23]: 12.5 µg/mL (≈ 38.1 µM); MIC [24]: 0.8 µg/mL (≈ 2.44 µM); MIC [25]: 200 µg/mL (≈ 609 µM); MIC [26]: 100 µg/mL (≈ 305 µM); MIC (Proteus vulgaris OX-19): 25 µg/mL (≈ 76.2 µM)
[C-]#[N+]C12CC3(/C=C/C(=O)OCc4cccc([N+](=O)[O-])c4)OC3C1O2 (stereo not drawn) [compound 14]	0.78 (≈ 2.38 µM)	> 200	200 (≈ 609 µM)	> 200	200 (≈ 609 µM)	> 200	> 200	> 200	200 (≈ 609 µM)	200 (≈ 609 µM)	> 200	12.5 (≈ 38.1 µM)	> 200	> 200	25 (≈ 76.2 µM)	> 200	3.13	> 200	> 200	200 (≈ 609 µM)	MIC (Salmonella typhi 901): 200 µg/mL (≈ 609 µM); MIC [19]: 200 µg/mL (≈ 609 µM); MIC [20]: 200 µg/mL (≈ 609 µM); MIC [21]: > 200 µg/mL; MIC [22]: 200 µg/mL (≈ 609 µM); MIC [23]: 200 µg/mL (≈ 609 µM); MIC [24]: 12.5 µg/mL (≈ 38.1 µM); MIC [25]: > 200 µg/mL; MIC [26]: > 200 µg/mL; MIC (Proteus vulgaris OX-19): 200 µg/mL (≈ 609 µM)
[C-]#[N+]C12CC3(/C=C/C(=O)OCc4ccc([N+](=O)[O-])cc4)OC3C1O2 (stereo not drawn) [compound 15]	< 0.1	50 (≈ 152 µM)	50 (≈ 152 µM)	> 100	25 (≈ 76.2 µM)	> 100	50 (≈ 152 µM)	> 100	25 (≈ 76.2 µM)	12.5 (≈ 38.1 µM)	> 100	< 0.1	> 100	50 (≈ 152 µM)	6.25 (≈ 19 µM)	100 (≈ 305 µM)	12	> 100	50 (≈ 152 µM)	25 (≈ 76.2 µM)	MIC (Salmonella typhi 901): 25 µg/mL (≈ 76.2 µM); MIC [19]: 25 µg/mL (≈ 76.2 µM); MIC [20]: 25 µg/mL (≈ 76.2 µM); MIC [21]: 50 µg/mL (≈ 152 µM); MIC [22]: 50 µg/mL (≈ 152 µM); MIC [23]: 12.5 µg/mL (≈ 38.1 µM); MIC [24]: 6.25 µg/mL (≈ 19 µM); MIC [25]: 50 µg/mL (≈ 152 µM); MIC [26]: > 100 µg/mL; MIC (Proteus vulgaris OX-19): 6.25 µg/mL (≈ 19 µM)
